Laboratory results: paper PMC12281475, “Mediator Kinase Inhibitor Selectivity and Activity in Colorectal Cancer” (ACS Chemical Biology, 2025)

Tests used:
[1] = tested on: MED14 phosphorylation in SW620 cells; experiment: CDK-substrate motif immunoprecipitation and MED14 immunoblot, SW620; type: cell-based, human; details: parent SW620, 350 nM, 6 h
Excerpt: 3 Mediator kinase knockout alters STAT1^SER727phosphorylation and promoter activity in SW620 human colon cancer cells. (A) Capillary immunoassay of Mediator kinase module expression and pSTAT1^SER727 biomarker in multiple independent knockout clones. GAPDH was included as a loading control. […] Controls included IgG alone for background, DMEM for untreated cells, and DMSO as a vehicle control. MED14 was detected as a doublet pair of bands by immunoblotting of cell lysates (middle gel panel). […] The lower panel includes vinculin as a loading control. (C) Promoter reporter results from CDK8 knockout clone 1 relative to parent SW620 cells. Data represent mean ± s.e.m (n = 3). The black horizontal line indicates unchanged reporter activity, while the horizontal red line highlights reporters with altered activity ±1.5-fold. […]
Cell monolayers were washed with PBS twice and lysed using a modified RIPA buffer, mRIPA (50 mM TRIS-HCl pH 7.4, 1% NP-40 substitute, 0.5% NaDOC, 150 mM NaCl, 1 mM EDTA, 0.02% SDS and 1:100 dilution of proteinase and phosphatase inhibitor cocktail, (#5872, Cell Signaling Technology) with overnight freezing at -80 °C and sonication of the cell pellet. Lysates were clarified by centrifugation and supernatants collected and protein concentration determined by a bicinchoninic acid (BCA) assay. […]

[2] = tested on: COLO205 cells; experiment: Promoter reporter panel (transient luciferase constructs), COLO205; type: cell-based, human; details: COLO205, 350 nM, 6 h
Description: Transcription factor activity was assayed in cell lines using 45 different plasmid reporter constructs encoding firefly luciferase under the control of a basal promoter element downstream of specific transcriptional response elements (Qiagen, Germany; Supporting Table S1). Firefly luciferase under the control of basal promoter element alone was used to establish the baseline signal and cotransfection of a construct expressing renilla luciferase from a CMV-promoter was used as a transfection control. Cells were reverse-transfected with reporter plasmids, compounds were added 42 h post transfection and reporter activity quantified following 6 h continuous exposure.
Transcription factor promoter reporter assays were carried out to define signalling pathways and biological processes modulated by CDK8/19 ligands. A panel of plasmid reporter constructs encoding firefly luciferase under the control of a basal promoter element with specific transcriptional response elements were used (Qiagen, Germany;
Firefly luciferase under the control of the minimal promoter element (TATA box) alone was used to establish the base-line signal and a construct expressing renilla luciferase from a CMV-promoter was used as a transfection control. COLO205 human colon cancer cells or SW620 parental and CRISPR KO cells were reverse-transfected with the panel of plasmid reporters in a 96 well plate format. The reporter mixes were prepared at 40:1 ratio of fLUC to rLUC plasmid at a final concentration of
100 ng/ml. For each well 1 ul plasmid was complexed with 1 ul Lipofectamine 2000
(Thermo Fisher Scientific, UK) in 50 ul OptiMEM (Thermo Fisher Scientific, UK) media
for 20 mins at room temperature. Cells were trypsinised and 50 ul of cells at 2e5
cells/ml in supplemented DMEM were added to the 50 ul of plasmid:lipofectamine
mixture in OptiMEM in a well of a 96-well white opaque flat bottom microtiter plate.
fLUC and rLUC were measured by the addition of 100 ul dual glo luciferase reagent
(Promega, USA). Reporter activity was quantified in untreated cells 48 hours post- […]

[3] = tested on: SW620 cells; experiment: Tumour spheroid growth assay (CellTitre-Glo), SW620 parent and knockout clones; type: cell-based, human; details: SW620 spheroids
[4] = tested on: phospho-STAT1^SER727 in SW620 tumor xenografts; experiment: Tumor phospho-STAT1 SER727 relative to total STAT1, electrochemiluminescent ELISA; type: in vivo, mice; details: 6 h after final dose
[5] = tested on: SW620 human solid tumor xenografts; experiment: Antitumor activity in SW620 tumor xenografts (parent and knockout clones); details: 42 mg/kg p.o. qd 5/7 days, 14-20 days
Description: Three separate clones were run for each knockdown condition (n = 7 control or treated mice per group for the parent and each individual clone). Tumors and plasma were collected 6 h after the final dose. For all graphs an ordinary one-way ANOVA with Dunnett’s correction was run to determine significance. […] Each point represents data from a knockout clone.
The establishment, treatment, pharmacokinetic analyses and processing of tumor samples from solid tumor xenografts was performed as described previously previously. , All procedures were performed in accordance with published NCRI guidelines and UK Government Home Office regulations.
The establishment, treatment, pharmacokinetic analysis and processing of tissue
samples from human tumour xenografts was performed as described previously.3,4 All
procedures were performed in accordance with published guidelines and UK
Government Home Office regulations.5 Female athymic nude mice Crl:NU-Foxn1nu
(Charles River Laboratories, US) were acclimatized for 1 week prior to use. Five million
SW620 human colorectal carcinoma cells were injected s.c. in the right flanks of 6–8
weeks old female NCr athymic mice under isofluorothane anesthesia. Therapy was
initiated when established tumours reached a mean volume of 60 mm (day 7). Animals
were randomly assigned into cohorts. Control mice received vehicle (0.5% Methocel,
at 42 mg/kg p.o qd for 5/7 days with a 2-day break after 1 week's dosing.
was prepared 24 h prior to administration to mice by weighing into a glass 30 mL
universal tube, and Methocel solution (0.5% Methocel, 0.25% Tween 20 in sterile
phosphate buffered saline) added to provide a final concentration of 3 mg/mL.
preparation was agitated at room temperature by magnetic stirrer to bring it into a fine
suspension before use. Animals were dosed orally by gavage every 24 h at 0.1 mL
per 10 g body weight. Tumours were measured three times weekly by Vernier calipers and body weights recorded. At the end of the study, day 3 for pharmacodynamic
biomarker analysis and day 14 for anti-tumour therapy experiments, animals were
culled 6 h after the final dose. Heparinized blood was collected by cardiac puncture,
spun, and the plasma snap frozen in liquid nitrogen for analysis of compound
exposure. Tumours were excised, weighed and samples snap frozen for compound

[6] = 14-20 days, 42 mg/kg p.o qd 5/7 days

Structure (SMILES)	MED14 upper band (immunoblot of cell lysates) [1]	reduction of activity of TCF/LEF, SP1 and PAX6 reporter constructs [2] [fold]	WNT-regulated TCF/LEF reporter construct activity ([2]; p adj < 0.001)	spheroid growth of CDK8 and double knockout clones [3]	spheroid growth of CDK19 knockout clones [3]	tumor phospho-STAT1 SER727, CDK8/19 clones [4, 6]	tumor phospho-STAT1 SER727, parent, CDK19 and CDK8 clones [4, 6]	tumor phospho-STAT1 SER727 levels, CDK8 and CDK8/19 knockouts ([4]; 3 days, 42 mg/kg p.o. qd, except CDK8-KO-cl2 (p < 0.05))	tumor phospho-STAT1 SER727 levels, parent and CDK19 clones ([4]; 3 days, 42 mg/kg p.o. qd, p < 0.0001)	antitumor activity, treated/control (T/C) ([5]; CDK8/19 double knockout SW620 xenografts, p < 0.005) [%]	antitumor activity, treated/control (T/C) ([5]; CDK8 knockout SW620 xenografts, ± s.e.m.) [%]	antitumor activity, treated/control (T/C) ([5]; CDK19 knockout SW620 xenografts) [%]	antitumor activity, treated/control (T/C) ([5]; parental SW620 xenografts) [%]
Cn1cc(-c2ccc(-c3cncc(Cl)c3N3CCC4(CCNC4=O)CC3)cc2)cn1 [CCT251545]	reduced by active compound treatment	> 1.5	most significant decrease	insensitive to treatment	growth inhibition similar to the parental line								
Cn1ncc2cc(-c3cnc(N)c(Cl)c3N3CCC4(CCNC4=O)CC3)ccc21 [CCT251921]						not	significantly reduced	no significant change	significantly reduced	113 ± 10	59 ± 6	66 ± 3	63
